ChEMBL document CHEMBL5584318, “Targeting Solvent-Front Mutations for Kinase Drug Discovery: From Structural Basis to Design Strategies” (J Med Chem, 2024)

assay: Half life in human; type: ADME

Structure (SMILES) | half-life [min]
Cn1cc(-c2cnn3ccc(N4CCC[C@@H]4c4cc(F)ccc4F)nc23)cn1 | 3
C[C@@H](Nc1ccn2ncc(-c3cnn(C)c3)c2n1)c1cc(F)ccc1OCC(F)F | 315
Cn1cc(-c2cnn3ccc(N4CCC[C@@H]4c4cc(F)ccc4OCC(F)F)nc23)cn1 | 8.3
